Experimental findings from EPA's ToxRefDB 2 are described below.

Series [1] relates to rat. The note with it: Prenatal developmental toxicity study; wistar; Inhalation; Whole-Body; dose end: 20 GD; group: developmental; developmental / developmental malformation / heart / dilatation.
Series [2] deals with rabbit. As to conditions: Prenatal developmental toxicity study; himalayan; Inhalation; Whole-Body; dose end: 29 GD; group: developmental; developmental / developmental malformation / heart / adhesions + developmental / developmental malformation / kidney / dilatation.
Series [3] concerns rat. As to conditions: Combined chronic toxicity/carcinogenicity; fischer; Oral; Feed; dose end: 365 day; group: systemic; systemic / pathology microscopic / liver / hepatocellular carcinoma + systemic / pathology microscopic / testes / adenoma + systemic / in ….
In series [4] the test system is mouse. As to conditions: Combined chronic toxicity/carcinogenicity; other; Oral; Feed; dose end: 365 day; group: systemic; systemic / in life observation / body weight / body weight.
For series [5], the system named is mouse. As to conditions: Sub-acute repeat dose toxicity, Oral, Gavage/Intubation, dose end: 28 day.
In series [6] the test system is dog. As to conditions: Chronic toxicity, beagle, Oral, Gavage/Intubation, dose end: 182 day, group: systemic, systemic / in life observation / clinical signs / defecation (diarrhea) + systemic / in life observation / clinical signs / feces.
The subject of series [7] is dog. As to conditions: Sub-acute repeat dose toxicity, beagle, Oral, Gavage/Intubation, dose end: 28 day, group: systemic.
Series [8] has as its system mouse. As to conditions: Sub-acute repeat dose toxicity, Oral, Gavage/Intubation, dose end: 28 day. The source holds these as a separate data set.
In series [9] the test system is mouse. As to conditions: Sub-acute repeat dose toxicity, Oral, Gavage/Intubation, dose end: 14 day, group: systemic.
The test system of series [10] is dog. The note with it: Sub-acute repeat dose toxicity, beagle, Oral, Gavage/Intubation, dose end: 14 day, group: systemic.
Series [11] relates to mouse. The note with it: Chronic toxicity, Oral, Gavage/Intubation, dose end: 182 day.
Series [12] concerns dog. The note with it: Chronic toxicity, beagle, Oral, Gavage/Intubation, dose end: 182 day, group: systemic.
Series [13] deals with rat. As to conditions: Subchronic oral toxicity in rodents, sprague dawley, Feed, dose end: 13 week, group: systemic.
A further series relates to hamster. The note with it: Subchronic oral toxicity in rodents, golden syrian, Feed, dose end: 13 week, group: systemic.
The subject of series [14] is mouse. As to conditions: Subchronic oral toxicity in rodents, b6c3f1, Feed, dose end: 13 week, group: systemic.
In series [15] the test system is rat. The note with it: Prenatal developmental toxicity study, sprague dawley, Oral, Gavage/Intubation, dose end: 20 GD.
For series [16], the system named is rabbit. The note with it: Prenatal developmental toxicity study, new zealand white, Oral, Gavage/Intubation, dose end: 28 GD.
Series [17] concerns rat. The note with it: Multigenerational reproductive toxicity study, wistar, Oral, Feed, dose end: 2 generation.
Series [18] has as its system mouse. The note with it: Multigenerational reproductive toxicity study, cd1, Oral, Water, dose end: 2 generation.
[19] abbreviates: group: maternal, reproductive / reproductive performance / estrous cycle / absent corpora lutea.
Where [20] appears, read: group: systemic, systemic / clinical chemistry / alkaline phosphatase (alp/alk) / alkaline phosphatase (alp/alk) + systemic / hematology / mean corpuscular (….
Setting [21] is: group: systemic, systemic / hematology / mean corpuscular (cell) volume (mcv) / mean corpuscular (cell) volume (mcv) + systemic / hematology / mean ….
Where [22] appears, read: systemic / clinical chemistry / cholesterol / cholesterol + systemic / clinical chemistry / triglycerides / triglycerides + systemic / ….
[23] abbreviates: systemic / in life observation / clinical signs / defecation (diarrhea) + systemic / in life observation / clinical signs / delayed sexual ….
The mark [24] stands for this setting: systemic / clinical chemistry / albumin / albumin + systemic / clinical chemistry / protein / protein + systemic / hematology / erythrocyte….
The mark [25] stands for this setting: systemic / in life observation / body weight / body weight.
The mark [26] stands for this setting: systemic / in life observation / body weight / body weight + systemic / in life observation / clinical signs / defecation (diarrhea) + ….
The mark [27] stands for this setting: systemic / pathology gross / oral mucosa / discolored.
[28] abbreviates: group: reproductive, reproductive / reproductive performance / estrous cycle / absent corpora lutea.
[29] abbreviates: group: systemic, systemic / hematology / erythrocyte (rbc) count differential / erythrocyte (rbc) + systemic / in life observation / body weight / body ….
Where [30] appears, read: systemic / in life observation / clinical signs / abnormal feces.
The mark [31] stands for this setting: systemic / in life observation / clinical signs / abnormal feces + systemic / in life observation / body weight / body weight + systemic / ….
[32] abbreviates: systemic / clinical chemistry / alkaline phosphatase (alp/alk) / alkaline phosphatase (alp/alk) + systemic / organ weight / kidney / ….
[33] abbreviates: systemic / in life observation / body weight / body weight + systemic / in life observation / body weight / body weight gain + systemic / ….
Setting [34] is: systemic / pathology microscopic / liver / cytoplasmic alteration + systemic / clinical chemistry / cholesterol / cholesterol + systemic / ….
The mark [35] stands for this setting: group: developmental, developmental / developmental malformation / bone / incomplete ossification + developmental / developmental malformation / bone / short + ….
[36] abbreviates: group: maternal, systemic / in life observation / body weight / body weight gain + systemic / in life observation / clinical signs / salivation + systemic / ….
Where [37] appears, read: group: developmental, developmental / developmental malformation / bone / [other] + developmental / developmental malformation / bone / extra ossification site + ….
[38] abbreviates: group: maternal, systemic / in life observation / body weight / body weight gain + systemic / in life observation / food consumption / food consumption.
Setting [39] is: group: offspring, developmental / offspring survival late / viability index / viability index + systemic / in life observation / body weight / offspring (pup….
Where [40] appears, read: group: parental, systemic / pathology microscopic / thyroid gland / colloid content.
The mark [41] stands for this setting: group: parental, systemic / pathology microscopic / thyroid gland / colloid content + systemic / organ weight / thyroid gland / absolute + systemic / organ ….
Where [42] appears, read: group: offspring, systemic / in life observation / body weight / offspring (pup) weight.
Where [43] appears, read: group: parental, systemic / organ weight / kidney / relative to body weight + systemic / organ weight / epididymis / relative to body weight + systemic / ….

As a reminder, the LOAEL is the lowest tested level that showed an adverse finding. Broadly, the NOAEL is the highest tested level that showed no adverse finding. With `CC(C)CO` [2-Methyl-1-propanol], in the series with rat [1], the LEL was 10 ppm, the LOAEL is above 10 ppm, the NEL turned out to be 2.5 ppm and the NOAEL is at least 10 ppm. For the same molecule, in the series on rabbit [2], the LEL was 10 mg/L, the lowest observed adverse effect level (LOAEL) is above 10 ppm, the NEL was determined as 2.5 ppm and the NOAEL was at least 10 ppm.

For the molecule `NC(=O)CCCCC(N)=O` [Adipamide], in the series on rat [3], the LEL worked out at 1200 mg/kg/day, the LOAEL is above 1200 mg/kg/day, the NEL was below 1200 mg/kg/day and the NOAEL is at least 1200 mg/kg/day. For the same molecule, in the series with mouse [4], the LEL was 3600 mg/kg/day, the LOAEL is above 3600 mg/kg/day, the NEL was below 3600 mg/kg/day and the no observed adverse effect level (NOAEL) was at least 3600 mg/kg/day.

As to `CNC(=O)c1ccccc1Sc1ccc2c(/C=C/c3ccccn3)n[nH]c2c1` [Axitinib], the LEL was 125 mg/kg/day in the series with mouse [5] (setting [19]); 15 mg/kg/day in the series on mouse [5] (setting [21]); 1 mg/kg/day in the series on dog [6]; 5 mg/kg/day with dog [7] (setting [23]); 125 mg/kg/day in the series on mouse [8] (setting [19]); 15 mg/kg/day in the series on mouse [8] (setting [21]). The LEL in the series with mouse [9] (setting [25]) amounted to 25 mg/kg/day; in the series with dog [10] (setting [27]), 12 mg/kg/day; in the series on mouse [11] (setting [28]), 5 mg/kg/day; in the series on mouse [11] (group: systemic, systemic / hematology / erythrocyte (rbc) count differential / erythrocyte (rbc) + systemic / in life observation / clinical signs / poor …), 15 mg/kg/day; in the series on dog [12] (setting [30]) it was 1 mg/kg/day. Besides, the lowest-observed-adverse-effect level (LOAEL) in the series with mouse [5] (setting [19]) is above 125 mg/kg/day; with mouse [5] (setting [20]), above 125 mg/kg/day; with dog [6], above 5 mg/kg/day; in the series on dog [7] (setting [22]), above 50 mg/kg/day; in the series on mouse [8] (setting [19]) it was above 125 mg/kg/day; in the series with mouse [8] (setting [20]) it was above 125 mg/kg/day. For the same molecule, the LOAEL in the series with mouse [9] (setting [24]) is above 250 mg/kg/day; with dog [10] (setting [26]), above 150 mg/kg/day; in the series on mouse [11] (setting [28]) it was above 125 mg/kg/day; in the series with mouse [11] (setting [29]) it was above 125 mg/kg/day; in the series on dog [12] (setting [31]) it was above 5 mg/kg/day. In addition, the NEL was 15 mg/kg/day with mouse [5] (setting [19]); 5 mg/kg/day in the series with mouse [5] (setting [20]); below 1 mg/kg/day in the series with dog [6]; below 5 mg/kg/day with dog [7] (setting [23]); 15 mg/kg/day in the series with mouse [8] (setting [19]); 5 mg/kg/day in the series on mouse [8] (setting [20]). The NEL was below 25 mg/kg/day in the series with mouse [9] (setting [25]); below 12 mg/kg/day in the series on dog [10] (setting [27]); below 5 mg/kg/day with mouse [11] (setting [28]); 5 mg/kg/day with mouse [11] (setting [29]); below 1 mg/kg/day in the series on dog [12] (setting [30]). Further, the NOAEL with mouse [5] (setting [19]) is at least 125 mg/kg/day; in the series with mouse [5] (setting [20]), at least 125 mg/kg/day; in the series on dog [6], at least 5 mg/kg/day; in the series on dog [7] (setting [22]), at least 50 mg/kg/day; in the series with mouse [8] (setting [19]), at least 125 mg/kg/day; with mouse [8] (setting [20]), at least 125 mg/kg/day. Besides, the NOAEL was at least 250 mg/kg/day with mouse [9] (setting [24]); at least 150 mg/kg/day in the series with dog [10] (setting [26]); at least 125 mg/kg/day with mouse [11] (setting [28]); at least 125 mg/kg/day in the series on mouse [11] (setting [29]); at least 5 mg/kg/day in the series with dog [12] (setting [31]).

Turning to `Cc1cccc(Nc2cc(Cl)nc(SCC(=O)O)n2)c1C` [Pirinixic acid], the LEL with rat [13] (setting [32]) is 0.3 mg/kg/day; with hamster (setting [34]) it was 0.4 mg/kg/day; with mouse [14] (setting [34]) it was 0.9 mg/kg/day. Also, the NEL in the series on rat [13] (setting [32]) was below 0.3 mg/kg/day; in the series on hamster (setting [34]), below 0.4 mg/kg/day; in the series on mouse [14] (setting [34]), below 0.9 mg/kg/day. Also, the NOAEL is 0.6 mg/kg/day in the series on rat [13] (setting [32]), 0.4 mg/kg/day in the series with hamster (setting [33]) and 12 mg/kg/day with mouse [14] (setting [33]). The LOAEL in the series on rat [13] (systemic / pathology microscopic / liver / cytoplasmic alteration + systemic / in life observation / body weight / body weight + systemic / …) was 3 mg/kg/day; with hamster (setting [33]) it was 0.7 mg/kg/day; with mouse [14] (setting [33]), 22 mg/kg/day.

Consider `Cc1[nH]n(C)c(=O)c1C(=O)c1ccc(C(F)(F)F)cc1S(C)(=O)=O` [Pyrasulfotole], for which the LEL with rat [15] (setting [35]) amounted to 100 mg/kg/day; in the series with rat [15] (setting [36]), 100 mg/kg/day; with rabbit [16] (setting [37]), 75 mg/kg/day; in the series with rabbit [16] (setting [38]) it was 250 mg/kg/day; with rat [17] (setting [39]), 3.68 mg/kg/day; in the series with rat [17] (setting [41]) it was 2.5 mg/kg/day. The LOAEL with rat [15] (setting [35]) is 100 mg/kg/day; in the series with rat [15] (setting [36]), 100 mg/kg/day; with rabbit [16] (setting [37]) it was 75 mg/kg/day; in the series with rabbit [16] (setting [38]), 250 mg/kg/day; with rat [17] (setting [39]) it was above 354 mg/kg/day; in the series on rat [17] (setting [40]) it was 2.5 mg/kg/day. The NEL in the series on rat [15] (setting [35]) was 10 mg/kg/day; in the series on rat [15] (setting [36]), 10 mg/kg/day; in the series on rabbit [16] (setting [37]), 10 mg/kg/day; in the series on rabbit [16] (setting [38]), 75 mg/kg/day; in the series on rat [17] (setting [39]), below 3.68 mg/kg/day; in the series on rat [17] (setting [41]), below 2.5 mg/kg/day. In addition, the NOAEL was 10 mg/kg/day with rat [15] (setting [35]); 10 mg/kg/day in the series with rat [15] (setting [36]); 10 mg/kg/day in the series with rabbit [16] (setting [37]); 75 mg/kg/day with rabbit [16] (setting [38]); at least 354 mg/kg/day with rat [17] (setting [39]); below 2.5 mg/kg/day in the series on rat [17] (setting [40]).

In the series on mouse [18] (setting [42]), `CC(=O)OCCOCCOCCOC(C)=O` [Triethylene glycol diacetate] gave an LEL of 4000 mg/kg/day, an LOAEL above 4000 mg/kg/day, an NEL of 2000 mg/kg/day and an NOAEL of at least 4000 mg/kg/day. Also, the NEL in the series on mouse [18] (group: parental, systemic / organ weight / kidney / relative to body weight) is 2000 mg/kg/day. In the series on mouse [18] (setting [43]), the LEL is 4000 mg/kg/day, the lowest observed adverse effect level (LOAEL) is above 4000 mg/kg/day and the NOAEL was at least 4000 mg/kg/day.
